Assay results reported in the NIST ThermoML archive (doi:10.1021/acs.jced.6b00460).
Numbers after ± are expanded uncertainties.

Assay: xn = mol fraction of the nth substance listed
Settings: 101 kPa, Liquid; for speed of sound: Sing-around technique in a fixed-path interferometer; for mass density: Vibrating tube method

CCCCCCCC[n+]1ccc(C)cc1.[Cl-] [4-methyl-1-octylpyridinium chloride] + O
Settings	mass density, 308.15 K [kg/m3]	mass density, 318.15 K [kg/m3]	speed of sound, 308.15 K [m/s]	speed of sound, 318.15 K [m/s]
x2 = 0.0612	1107.62 ± 2.2	1101.69 ± 2.2	1448.6 ± 2.6	1417.4 ± 2.6
x2 = 0.1098	1107.56 ± 2.2	1101.55 ± 2.1	1452 ± 2.5	1421.5 ± 2.5
x2 = 0.2054	1107.52 ± 2.1	1101.39 ± 2.1	1457.5 ± 2.4	1430.4 ± 2.4
x2 = 0.2476	1107.46 ± 2.1	1101.31 ± 2.1	1459.9 ± 2.3	1435.3 ± 2.3
x2 = 0.3088	1107.3 ± 2.1	1101.1 ± 2.1	1463.2 ± 2.3	1439.9 ± 2.3
x2 = 0.4187	1106.44 ± 2	1100.18 ± 2	1468.7 ± 2.1	1451.7 ± 2.1
x2 = 0.4521	1105.97 ± 2	1099.68 ± 2	1472.2 ± 2.1	1454.6 ± 2.1
x2 = 0.5065	1104.89 ± 2	1098.57 ± 2	1475.1 ± 2	1461.8 ± 2
x2 = 0.6021	1101.75 ± 2	1095.32 ± 2	1483.4 ± 2	1475 ± 2
x2 = 0.6532	1099.16 ± 2	1092.65 ± 2	1487.9 ± 1.9	1482.3 ± 1.9
x2 = 0.7042	1095.66 ± 2	1089.07 ± 2	1492.5 ± 1.9	1490.3 ± 1.9
x2 = 0.7565	1090.74 ± 2	1084.09 ± 2	1497.2 ± 1.9	1498.6 ± 1.9
x2 = 0.8029	1084.75 ± 2	1078.06 ± 2	1501.7 ± 1.8	1506.7 ± 1.8
x2 = 0.8577	1074.57 ± 2	1067.97 ± 2	1505.2 ± 1.8	1513.6 ± 1.8
x2 = 0.9035	1061.61 ± 2	1055.25 ± 2	1510.4 ± 1.8	1521.1 ± 1.8
x2 = 0.9511	1039.58 ± 2	1033.92 ± 2	1514.3 ± 1.8	1528.4 ± 1.8

CCCCCC[n+]1ccc(C)cc1.[Br-] [1-hexyl-4-methylpyridinium bromide] + O
Settings	mass density, 308.15 K [kg/m3]	mass density, 318.15 K [kg/m3]	speed of sound, 308.15 K [m/s]	speed of sound, 318.15 K [m/s]
x2 = 0.0528	1214.12 ± 2.3	1207.39 ± 2.3	1586.8 ± 2.6	1557.9 ± 2.6
x2 = 0.1126	1213.44 ± 2.2	1206.62 ± 2.2	1583.6 ± 2.5	1557 ± 2.5
x2 = 0.2082	1211.69 ± 2.2	1204.8 ± 2.2	1579.1 ± 2.4	1555.2 ± 2.4
x2 = 0.2609	1210.34 ± 2.1	1203.43 ± 2.1	1575.7 ± 2.3	1554.2 ± 2.3
x2 = 0.3062	1208.9 ± 2.1	1202.01 ± 2.1	1573.2 ± 2.3	1553.2 ± 2.3
x2 = 0.4101	1204.56 ± 2.1	1197.72 ± 2.1	1568.4 ± 2.2	1551.7 ± 2.2
x2 = 0.4609	1201.71 ± 2.1	1194.91 ± 2	1565.3 ± 2.1	1550.7 ± 2.1
x2 = 0.5077	1198.65 ± 2	1191.88 ± 2	1563 ± 2.1	1549.8 ± 2.1
x2 = 0.6089	1189.79 ± 2	1183.07 ± 2	1557.2 ± 2	1547.7 ± 2
x2 = 0.6539	1184.57 ± 2	1177.87 ± 2	1553.3 ± 1.9	1546 ± 1.9
x2 = 0.7029	1177.58 ± 2	1170.89 ± 2	1547.7 ± 1.9	1544.7 ± 1.9
x2 = 0.7484	1169.44 ± 2	1162.78 ± 2	1542.9 ± 1.9	1543.5 ± 1.9
x2 = 0.8066	1155.56 ± 2	1148.97 ± 2	1537.6 ± 1.8	1542 ± 1.8
x2 = 0.8545	1139.33 ± 2	1132.88 ± 2	1533.7 ± 1.8	1540.5 ± 1.8
x2 = 0.9066	1112.82 ± 2	1106.74 ± 2	1529.4 ± 1.8	1539.1 ± 1.8
x2 = 0.9502	1076.22 ± 2	1070.75 ± 2	1524.9 ± 1.8	1537.8 ± 1.8
